Measured values from patent publication US8987217B2, “Modified saponins for the treatment of fungal infections” (The General Hospital Corporation, priority 2010, dated 2015).
≈ marks a conversion by molar mass, not a printed value. Like-named read-outs stand apart in the source and are kept apart here.

Tests used:
Format in all cases: cell-based
[1] = system: C. albicans DAY185; experiment: photodynamic inactivation (PDI) with photosensitizers; conditions: 4 μg/mL A16, 10 μM PEI-ce6
Description: The PS used were Rose Bengal (RB, Sigma-Aldrich, St. Louis, Mo.) and chlorin(e6) (ce6, Frontier Scientific, Logan, Utah). PEI-ce6 was synthesized as a covalent conjugate between polyethylenimine (MW range 10,000-25,000, an average of one ce6 per chain) and ce6 as described previously (Tegos et al., Antimicrob Agents Chemother, 50:1402-1410 (2006)). Stock solutions were prepared in water at a concentration of 2 mM and stored for a maximum of 2 weeks in the dark at 4° C. before use. Spectra of stock solutions of PS diluted 140- to 280-fold in methanol were recorded. A noncoherent light source with interchangeable fiber bundles (LC122; LumaCare, London, United Kingdom) was employed. Thirty-nanometer-band-pass filters at ranges of 540±15 nm for RB, and 660±15 nm for ce6 and PEI-ce6 were used. […]
Photodynamic inactivation utilizes a non-toxic dye, or photosensitizer (PS), which is able to generate reactive oxygen species, such as singlet oxygen and hydroxyl radical, in the presence of oxygen and low-intensity light of the correct wavelength to be absorbed by the PS ultimately producing toxic effects in microbial cells (Fuchs et al., Antimicrob Agents Chemother, 51:2929-2936 (2007)). […] The survival fraction and uptake (molecules/cell) of C. albicans was determined for PDI mediated by the 3 different PSs with or without A16 pre-incubation for various time periods ranging between 1-24 hours. […]

[2] = system: C. albicans strains; experiment: MIC by standard CLSI microdilution protocol M27-A
Description: Using the standard Clinical and Laboratory Standards Institute (CLSI) procedure, the in vitro MIC of these two compounds was determined on the following C. albicans strains: DAY185 (the standard strain used throughout the screen), two fluconazole-resistant strains of C. albicans, and an echinocandin-resistant strain of C. albicans (Table 2).
The minimal inhibitory concentration (MIC) was determined for strains DAY185, 98-145, 95-120 (White et al., Antimicrob Agents Chemother, 46:1704-1713 (2002)), and A15-10 (Garcia-Effron et al., Antimicrob Agents Chemother, 53:112-122 (2009)) spectrophotometrically using RPMI 1640 media (Mediatech, Inc.) following the standard CLSI microdilution protocol M27-A (National Committee for Clinical Laboratory Standards, Reference method for broth dilution susceptibility testing of yeasts. Tentative standard M27-A, Villanova, Pa. (1995)). Biofilm assays using identified compounds were conducted as previously described (Richard et al., Eukaryot Cell, 4:1493-1502 (2005)). The biofilm dry mass was determined by drying the silicone squares in a chemical hood, and weighing the resulting biofilm mass subtracting the previously weighed mass of the silicone square. Biofilm pictures were captured using a confocal laser microscope (TCS NT, Leica Microsystems). Cells were grown at 30° C., exposed to PS for 30 min, and then washed with PBS.

[3] = system: C. albicans DAY185 hyphae; experiment: in vitro hyphal inhibition in RPMI 1640
Description: Caspofungin (Merck) served as a known antifungal compound control. In vitro hyphal inhibition was assessed by incubation of DAY185 in RPMI 1640 media at 37° C. After 48 hours the cultures were visually inspected for hyphal formation by microscopy. The ability of the antifungal compound A16, at either 2 or 4 μg/mL, to induce osmotic stress was assessed using DAY185 grown in a 96 well microtiter plate containing RPMI 1640 media and NaCl, ranging in concentrations from 0-2 M in 0.25 M increments. The growth of the fungus was measured spectrophotometrically after 48 hours of growth at 35° C.
C. albicans biofilms are composed of hyphae, pseudohyphae, yeast cells, and an extracellular matrix, where the hyphae play an integral role within this complex. In order to address the reduction in biofilm formation in the presence of saponins, we tested the ability of compound A16 to inhibit hyphae formation at various concentrations in RPMI.

For CC1CC[C@@]2(OC1)O[C@H]1CC3C4C[C@@H](O)C5C[C@@H](O[C@@H]6O[C@H](CO)[C@H](O[C@@H]7O[C@H](CO)[C@@H](O)[C@H](O[C@@H]8OC[C@@H](O)[C@H](O)[C@H]8O)[C@H]7O[C@@H]7O[C@H](CO)[C@@H](O)[C@H](O)[C@H]7O)[C@H](O)[C@H]6O)[C@H](O)C[C@]5(C)C4CC[C@]3(C)[C@H]1[C@@H]2C (stereo partly drawn) [A16, Aginoside], the “killing by PEI-ce6 mediated PDI after pre-incubation with A16” value [1] was “does not change dramatically”, the MIC [2] was 16 µg/mL (≈ 15 µM) and the MIC ([2]; C. albicans DAY185) was 16 µg/mL (≈ 15 µM). The MIC ([2]; echinocandin-resistant strain A15) was 16 µg/mL (≈ 15 µM), the hyphae formation ([3]; 1 μg/mL) was “visible reduction in the number of hyphae” and the hyphae formation ([3]; 2 μg/mL) was “very few hyphae formed”.
